Measurements: patent US10081635B2, “Substituted N-(pyrrolidine-3-yl)-7H-pyrrolo[2,3-D]pyrimidine-4-amine as janus kinase inhibitor” (YANG JI CHEMICAL CO., LTD., priority 2014, dated 2018)

How the values were obtained:
Type in all cases: biochemical
[1] = target: Human TYK2 (Homo sapiens (Human), UniProt P29597); assay: In vitro kinase inhibition test, TYK2 (33P-ATP filter scintillation); conditions: compound at 1 uM; read-out: TYK2 kinase-phosphorylation inhibitory level (% inhibition)
Method: (§1) 1. In Vitro Kinase Inhibition Test
(§2) Kinases used were human-derived JAK1, JAK2, JAK3, and TYK2 (Millipore, Germany). Each of these kinases was diluted with a suitable buffer solution as described below, and then mixed with reagents.
(§3) 3-morpholinopropane-1-sulfonic acid (MOPS) and EDTA were dissolved in distilled water at a concentration of 20 mM and 1 mM, respectively, and 100 uL of β-mercaptoethanol, 10 uL of Brij-35™, 5 mL of glycerol, and 100 mg of bovine serum albumin (BSA), each per 100 mL of the solution, were added to the solution, thereby preparing a JAK2, JAK3, and TYK2 dilution buffer solution.
(§4) Each compound was dissolved in a 100% DMSO solution at a 50 uM concentration. This solution was reacted with reagents in wells on a 96-well plate to reach a final concentration of 1 uM. Detailed experimental methods for each kinase are described below.
(§5) After reaction for about 40 minutes at room temperature, the reaction was stopped by adding 5 uL of a 3% (v/v) phosphoric acid solution.
(§6) In Tables 5 and 6, the numbers in the “Example” column, which are identification numbers of the examples, indicate the compounds synthesized in the corresponding examples, the values in the “JAK1”, “JAK2”, “JAK3”, and “TYK2” columns represent kinase-phosphorylation inhibitory levels as a percentage (%) of the compounds synthesized in the corresponding examples at a 1 uM concentration. In Tables 5 and 6, negative values substantially indicate no inhibitory effect.
(§7) The inhibitory levels (% inhibition) represent a percentage of reduction in phosphorylation activity in each test group with respect to the phosphorylation activity of a corresponding kinase in a negative control group lacking any of the compounds synthesized in the examples. % inhibition=[(Scintillation value of Test compound non-treatment group−Scintillation value of Test compound treatment group)/(Scintillation value of Test compound non-treatment group)]×100

[2] = target: Human JAK3 (Homo sapiens (Human), UniProt P52333); assay: In vitro kinase inhibition test, JAK3 (33P-ATP filter scintillation); conditions: compound at 1 uM; read-out: JAK3 kinase-phosphorylation inhibitory level (% inhibition)
Chain of Human JAK3 (P52333 whole entry): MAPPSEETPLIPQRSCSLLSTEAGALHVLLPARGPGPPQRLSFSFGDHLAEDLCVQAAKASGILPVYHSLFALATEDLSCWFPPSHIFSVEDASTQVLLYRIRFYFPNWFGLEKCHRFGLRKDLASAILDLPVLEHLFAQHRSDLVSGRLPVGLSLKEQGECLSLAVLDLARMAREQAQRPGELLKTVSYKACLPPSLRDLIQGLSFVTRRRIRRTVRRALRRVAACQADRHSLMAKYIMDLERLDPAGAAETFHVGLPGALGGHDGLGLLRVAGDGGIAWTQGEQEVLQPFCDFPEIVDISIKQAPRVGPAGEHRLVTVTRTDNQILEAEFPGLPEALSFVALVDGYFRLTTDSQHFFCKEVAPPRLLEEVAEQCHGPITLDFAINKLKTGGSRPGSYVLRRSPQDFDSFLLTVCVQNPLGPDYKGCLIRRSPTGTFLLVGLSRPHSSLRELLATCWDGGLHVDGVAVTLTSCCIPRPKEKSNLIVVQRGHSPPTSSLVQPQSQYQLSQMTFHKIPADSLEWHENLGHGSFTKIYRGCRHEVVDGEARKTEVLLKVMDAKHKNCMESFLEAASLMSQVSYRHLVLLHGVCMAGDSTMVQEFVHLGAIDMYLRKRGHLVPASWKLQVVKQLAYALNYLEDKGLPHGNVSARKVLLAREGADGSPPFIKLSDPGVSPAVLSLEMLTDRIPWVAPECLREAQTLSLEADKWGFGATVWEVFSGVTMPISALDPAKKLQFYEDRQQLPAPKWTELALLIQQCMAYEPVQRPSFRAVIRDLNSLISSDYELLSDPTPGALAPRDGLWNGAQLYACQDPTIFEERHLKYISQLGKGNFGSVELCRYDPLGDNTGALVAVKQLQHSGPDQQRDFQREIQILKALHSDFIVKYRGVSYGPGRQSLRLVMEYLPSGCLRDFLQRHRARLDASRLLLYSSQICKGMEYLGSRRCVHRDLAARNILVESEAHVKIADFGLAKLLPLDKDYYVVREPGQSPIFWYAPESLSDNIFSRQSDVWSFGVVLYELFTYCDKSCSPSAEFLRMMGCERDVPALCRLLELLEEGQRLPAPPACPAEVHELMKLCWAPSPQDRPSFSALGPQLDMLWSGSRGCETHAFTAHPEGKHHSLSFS
Method: as §1, §2, §3, §4, §5, §6, §7

[3] = target: Human JAK1 (Homo sapiens (Human), UniProt P23458); assay: In vitro kinase inhibition test, JAK1 (33P-ATP filter scintillation); conditions: compound at 1 uM; read-out: JAK1 kinase-phosphorylation inhibitory level (% inhibition)
Chain of Human JAK1 (P23458 whole entry): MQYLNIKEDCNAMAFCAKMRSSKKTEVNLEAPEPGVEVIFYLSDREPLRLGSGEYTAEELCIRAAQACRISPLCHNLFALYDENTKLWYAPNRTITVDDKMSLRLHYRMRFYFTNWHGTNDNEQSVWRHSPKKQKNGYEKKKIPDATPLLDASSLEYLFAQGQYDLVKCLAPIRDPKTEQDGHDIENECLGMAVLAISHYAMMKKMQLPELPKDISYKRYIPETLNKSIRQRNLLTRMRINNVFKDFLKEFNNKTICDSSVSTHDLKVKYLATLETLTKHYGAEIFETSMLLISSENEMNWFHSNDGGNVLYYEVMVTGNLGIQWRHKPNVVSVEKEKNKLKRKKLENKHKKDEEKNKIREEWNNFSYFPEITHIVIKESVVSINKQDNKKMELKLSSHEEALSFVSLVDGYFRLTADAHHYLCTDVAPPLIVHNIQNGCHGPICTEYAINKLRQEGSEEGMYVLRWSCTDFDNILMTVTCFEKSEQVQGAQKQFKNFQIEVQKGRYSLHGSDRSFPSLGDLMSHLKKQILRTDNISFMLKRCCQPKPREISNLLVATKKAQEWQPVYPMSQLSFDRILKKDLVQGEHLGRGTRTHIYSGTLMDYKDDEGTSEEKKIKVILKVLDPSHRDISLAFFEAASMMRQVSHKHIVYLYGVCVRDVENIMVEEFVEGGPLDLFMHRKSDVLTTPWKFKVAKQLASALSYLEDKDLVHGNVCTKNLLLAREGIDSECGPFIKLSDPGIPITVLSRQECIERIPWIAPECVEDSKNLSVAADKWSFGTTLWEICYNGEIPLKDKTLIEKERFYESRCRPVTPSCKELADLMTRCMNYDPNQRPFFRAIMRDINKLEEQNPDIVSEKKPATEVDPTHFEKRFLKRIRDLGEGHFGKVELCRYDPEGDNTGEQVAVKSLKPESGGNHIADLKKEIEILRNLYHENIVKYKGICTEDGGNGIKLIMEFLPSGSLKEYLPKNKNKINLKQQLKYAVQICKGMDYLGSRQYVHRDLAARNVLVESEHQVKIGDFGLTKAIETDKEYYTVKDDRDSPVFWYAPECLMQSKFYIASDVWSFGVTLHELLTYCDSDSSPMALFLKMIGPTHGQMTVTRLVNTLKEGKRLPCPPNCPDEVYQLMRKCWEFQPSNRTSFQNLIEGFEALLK
Method: as §1, §2
Tris(hydroxymethyl)aminomethane (TRIS) and ethylenediaminetetraacetic acid (EDTA) were dissolved in distilled water at a concentration of 20 mM and 0.2 mM, respectively, and 100 uL of β-mercaptoethanol, 10 uL of Brij-35™, and 5 mL of glycerol, each per 100 mL of the solution, were added to the solution, thereby preparing a JAK1 dilution buffer solution.
as §4
After reaction for about 40 minutes at room temperature, the reaction was stopped by adding 5 uL of a 3% (v/v) phosphoric acid solution. […] The methanol drying is a drying process using an azeotropic effect, wherein methanol is added into an aqueous solution for drying.
as §6, §7

[4] = target: Human JAK2 (Homo sapiens (Human), UniProt O60674); assay: In vitro kinase inhibition test, JAK2 (33P-ATP filter scintillation); conditions: compound at 1 uM; read-out: JAK2 kinase-phosphorylation inhibitory level (% inhibition)
Chain of Human JAK2 (O60674 whole entry): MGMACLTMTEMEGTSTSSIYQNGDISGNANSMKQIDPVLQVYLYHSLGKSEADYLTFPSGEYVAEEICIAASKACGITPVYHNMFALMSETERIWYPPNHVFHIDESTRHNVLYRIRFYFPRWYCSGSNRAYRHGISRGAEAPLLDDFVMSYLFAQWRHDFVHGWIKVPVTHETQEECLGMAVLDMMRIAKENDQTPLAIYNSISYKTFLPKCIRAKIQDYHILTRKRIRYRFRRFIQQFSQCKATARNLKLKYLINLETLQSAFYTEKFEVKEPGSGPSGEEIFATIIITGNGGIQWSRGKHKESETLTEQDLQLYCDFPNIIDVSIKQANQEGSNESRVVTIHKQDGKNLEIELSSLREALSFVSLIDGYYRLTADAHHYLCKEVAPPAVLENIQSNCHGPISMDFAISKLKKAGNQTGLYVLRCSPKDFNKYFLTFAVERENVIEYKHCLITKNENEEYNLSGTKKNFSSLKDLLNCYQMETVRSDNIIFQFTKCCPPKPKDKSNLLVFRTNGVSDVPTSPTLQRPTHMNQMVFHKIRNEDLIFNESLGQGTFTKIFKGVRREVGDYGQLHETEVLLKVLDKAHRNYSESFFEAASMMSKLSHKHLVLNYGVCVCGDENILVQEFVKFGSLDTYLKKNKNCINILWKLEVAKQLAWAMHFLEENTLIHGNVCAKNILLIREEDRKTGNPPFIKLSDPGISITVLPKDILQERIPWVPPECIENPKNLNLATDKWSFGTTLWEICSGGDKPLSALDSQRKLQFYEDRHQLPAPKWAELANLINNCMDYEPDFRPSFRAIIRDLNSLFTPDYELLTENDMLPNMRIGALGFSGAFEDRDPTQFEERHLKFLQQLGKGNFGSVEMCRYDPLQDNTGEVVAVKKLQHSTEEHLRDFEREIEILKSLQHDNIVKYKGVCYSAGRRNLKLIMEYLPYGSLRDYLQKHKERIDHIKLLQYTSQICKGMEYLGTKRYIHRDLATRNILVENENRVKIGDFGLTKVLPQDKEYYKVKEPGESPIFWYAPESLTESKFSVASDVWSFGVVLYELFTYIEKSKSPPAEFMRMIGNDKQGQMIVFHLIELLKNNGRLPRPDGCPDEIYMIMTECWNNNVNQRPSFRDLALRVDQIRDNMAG
Method: as §1, §2, §3, §4, §5, §6, §7

Chain of Human TYK2 (P29597 whole entry): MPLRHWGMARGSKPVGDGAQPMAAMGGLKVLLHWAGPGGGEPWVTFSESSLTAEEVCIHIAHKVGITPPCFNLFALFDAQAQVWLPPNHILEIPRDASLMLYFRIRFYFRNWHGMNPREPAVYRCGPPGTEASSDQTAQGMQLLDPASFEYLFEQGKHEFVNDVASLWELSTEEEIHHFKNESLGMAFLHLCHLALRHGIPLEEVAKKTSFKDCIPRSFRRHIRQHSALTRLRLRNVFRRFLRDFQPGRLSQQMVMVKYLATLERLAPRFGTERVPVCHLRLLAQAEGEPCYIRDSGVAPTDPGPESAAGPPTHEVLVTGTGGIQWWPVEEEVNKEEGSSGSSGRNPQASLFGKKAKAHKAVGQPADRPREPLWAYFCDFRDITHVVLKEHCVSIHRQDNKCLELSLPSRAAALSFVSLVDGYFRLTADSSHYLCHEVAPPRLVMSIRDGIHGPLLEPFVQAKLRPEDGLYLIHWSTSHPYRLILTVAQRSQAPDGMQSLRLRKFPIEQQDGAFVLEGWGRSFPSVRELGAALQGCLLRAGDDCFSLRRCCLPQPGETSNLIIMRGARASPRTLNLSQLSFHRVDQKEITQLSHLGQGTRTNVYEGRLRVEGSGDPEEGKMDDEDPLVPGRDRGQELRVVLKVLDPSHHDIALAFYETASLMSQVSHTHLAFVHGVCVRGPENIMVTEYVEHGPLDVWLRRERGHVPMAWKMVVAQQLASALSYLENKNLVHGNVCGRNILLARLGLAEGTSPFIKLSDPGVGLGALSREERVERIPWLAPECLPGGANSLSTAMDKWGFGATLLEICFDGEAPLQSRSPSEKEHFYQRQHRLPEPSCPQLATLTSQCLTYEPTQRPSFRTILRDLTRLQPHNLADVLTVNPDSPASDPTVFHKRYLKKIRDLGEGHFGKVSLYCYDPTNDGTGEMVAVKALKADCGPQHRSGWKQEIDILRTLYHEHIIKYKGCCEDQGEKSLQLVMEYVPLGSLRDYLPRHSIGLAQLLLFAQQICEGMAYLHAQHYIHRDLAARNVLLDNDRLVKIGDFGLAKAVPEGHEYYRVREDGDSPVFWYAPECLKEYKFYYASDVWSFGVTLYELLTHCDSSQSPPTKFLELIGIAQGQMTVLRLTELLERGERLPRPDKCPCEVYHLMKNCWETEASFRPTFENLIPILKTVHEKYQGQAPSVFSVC

| inhibition at 1 µM [1] [%] | inhibition at 1 µM [2] [%] | inhibition at 1 µM [3] [%] | inhibition at 1 µM [4] [%] | Structure (SMILES) |
| --- | --- | --- | --- | --- |
| 46 | 18 | 90 | 21 | CC(C)CC(=O)N1C[C@H](N(C)c2ncnc3[nH]ccc23)C2(CC2)C1 [Example 6, (R)-3-methyl-1-(7-(methyl(7H-pyrrolo[2,3-d]pyrimidin-4-yl)amino)-5-azaspiro[2.4]heptan-5-yl)butan-1-one] |
| 8 | 8 | 70 | -17 | CC(=O)NCC(=O)N1C[C@H](N(C)c2ncnc3[nH]ccc23)C2(CC2)C1 [Example 7, (R)-N-(2-(7-(methyl(7H-pyrrolo[2,3-d]pyrimidin-4-yl)amino)-5-azaspiro[2.4]heptan-5-yl)-2-oxoethyl)acetamide] |
| 11 | 3 | 61 | -7 | CNC(=O)CC(=O)N1C[C@H](N(C)c2ncnc3[nH]ccc23)C2(CC2)C1 [Example 8, (R)-N-methyl-3-(7-(methyl(7H-pyrrolo[2,3-d]pyrimidin-4-yl)amino)-5-azaspiro[2.4]heptan-5-yl)-3-oxopropanamide] |
| 70 | 13 | 90 | 10 | CN(c1ncnc2[nH]ccc12)[C@H]1CN(C(=O)C2CC2)CC12CC2 [Example 9, (R)-cyclopropyl(7-(methyl(7H-pyrrolo[2,3-d]pyrimidin-4-yl)amino)-5-azaspiro[2.4]heptan-5-yl)methanone] |
| 30 | 13 | 81 | -11 | CN(c1ncnc2[nH]ccc12)[C@H]1CN(C(=O)c2ccccc2)CC12CC2 [Example 13, (R)-(7-(methyl(7H-pyrrolo[2,3-d]pyrimidin-4-yl)amino)-5-azaspiro[2.4]heptan-5-yl)(phenyl)methanone] |
| 15 | 12 | 84 | -14 | CN(c1ncnc2[nH]ccc12)[C@H]1CN(C(=O)c2ccncc2)CC12CC2 [Example 14, (R)-(7-(methyl(7H-pyrrolo[2,3-d]pyrimidin-4-yl)amino)-5-azaspiro[2.4]heptan-5-yl)(pyridin-4-yl)methanone] |
| 43 | 13 | 76 | -15 | CN(c1ncnc2[nH]ccc12)[C@H]1CN(C(=O)c2cccc(C#N)c2)CC12CC2 [Example 15, (R)-3-(7-(methyl(7H-pyrrolo[2,3-d]pyrimidin-4-yl)amino)-5-azaspiro[2.4]heptane-5-carbonyl)benzonitrile] |
| 23 | 15 | 79 | 13 | CN(c1ncnc2[nH]ccc12)[C@H]1CN(C(=O)c2ccc(C#N)cc2)CC12CC2 [Example 16, (R)-4-(7-(methyl(7H-pyrrolo[2,3-d]pyrimidin-4-yl)amino)-5-azaspiro[2.4]heptane-5-carbonyl)benzonitrile] |
| 37 | 5 | 71 | -17 | CN(c1ncnc2[nH]ccc12)[C@H]1CN(C(=O)c2cccc(C(F)(F)F)c2)CC12CC2 [Example 18, (R)-(7-(methyl(7H-pyrrolo[2,3-d]pyrimidin-4-yl)amino)-5-azaspiro[2.4]heptan-5-yl)(3-(trifluoromethyl)phenyl)methanone] |
| 91 | 82 | 98 | 80 | CN(c1ncnc2[nH]ccc12)[C@H]1CN(C(=S)CC#N)CC12CC2 [Example 19, (R)-3-(7-(methyl(7H-pyrrolo[2,3-d]pyrimidin-4-yl)amino)-5-azaspiro[2.4]heptan-5-yl)-3-thioxopropanenitrile] |

The next lines start with the molecule.

| Structure (SMILES) | inhibition at 1 µM [1] [%] | inhibition at 1 µM [2] [%] | inhibition at 1 µM [3] [%] | inhibition at 1 µM [4] [%] |
| --- | --- | --- | --- | --- |
| CCCCN1C[C@H](N(C)c2ncnc3[nH]ccc23)C2(CC2)C1 [Example 1, (R)-N-(5-butyl-5-azaspiro[2.4]heptan-7-yl)-N-methyl-7H-pyrrolo[2,3-d]pyrimidin-4-amine] | -4 | 8 | 79 | -14 |
| CCCCCN1C[C@H](N(C)c2ncnc3[nH]ccc23)C2(CC2)C1 [Example 2, (R)-N-methyl-N-(5-pentyl-5-azaspiro[2.4]heptan-7-yl)-7H-pyrrolo[2,3-d]pyrimidin-4-amine] | 3 | 7 | 77 | -19 |
| CC(C)C(=O)N1C[C@H](N(C)c2ncnc3[nH]ccc23)C2(CC2)C1 [Example 3, (R)-2-methyl-1-(7-(methyl(7H-pyrrolo[2,3-d]pyrimidin-4-yl)amino)-5-azaspiro[2.4]heptan-5-yl)propan-1-one] | 49 | 16 | 83 | 25 |
| CN(c1ncnc2[nH]ccc12)[C@H]1CN(C(=O)CN=[N+]=[N-])CC12CC2 [Example 4, (R)-2-azido-1-(7-(methyl(7H-pyrrolo[2,3-d]pyrimidin-4-yl)amino)-5-azaspiro[2.4]heptan-5-yl)ethan-1-one] | 78 | 57 | 95 | 72 |
| CC(=O)N1CCC(C(=O)N2C[C@H](N(C)c3ncnc4[nH]ccc34)C3(CC3)C2)CC1 [Example 10, (R)-1-(4-(7-(methyl(7H-pyrrolo[2,3-d]pyrimidin-4-yl)amino)-5-azaspiro[2.4]heptane-5-carbonyl)piperidin-1-yl)ethan-1-one] | 52 | 23 | 88 | 2 |
| CN(c1ncnc2[nH]ccc12)[C@H]1CN(C(=O)c2ccco2)CC12CC2 [Example 11, (R)-furan-2-yl(7-(methyl(7H-pyrrolo[2,3-d]pyrimidin-4-yl)amino)-5-azaspiro[2.4]heptan-5-yl)methanone] | 61 | 15 | 93 | 10 |
| CN(c1ncnc2[nH]ccc12)[C@H]1CN(C(=O)c2cccnc2)CC12CC2 [Example 12, (R)-(7-(methyl(7H-pyrrolo[2,3-d]pyrimidin-4-yl)amino)-5-azaspiro[2.4]heptan-5-yl)(pyridin-3-yl)methanone] | 26 | 2 | 80 | -11 |
| CN(c1ncnc2[nH]ccc12)[C@H]1CN(C(=O)c2ccccc2C(F)(F)F)CC12CC2 [Example 17, (R)-(7-(methyl(7H-pyrrolo[2,3-d]pyrimidin-4-yl)amino)-5-azaspiro[2.4]heptan-5-yl)(2-(trifluoromethyl)phenyl)methanone] | 39 | -1 | 65 | -14 |
| CC(C)COC(=O)N1C[C@H](N(C)c2ncnc3[nH]ccc23)C2(CC2)C1 [Example 20, isobutyl (R)-7-(methyl(7H-pyrrolo[2,3-d]pyrimidin-4-yl)amino)-5-azaspiro[2.4]heptane-5-carboxylate] | 43 | 27 | 93 | 27 |
